Series [1] can be described thus: Influence on the pancreatic secretion of the narcotized rat after intraduodenal application. The series is classed as in vivo, rat (male Sprague-Dawley). The note with it: in vivo; Table I; LD50 mouse i.p. / ED50 pancreatic secretion rat i.d.; read-out: TQ (LD50/ED50), pancreatic secretion. From the text: (§1) Influence on the Pancreatic and Bile Secretion of the Narcotized Rat Carrying out the Test
(§2) Male Sprague-Dawley rats (250 to 300 g body weight) are narcotized with 1.2 g/kg urethane i.m. Then the abdominal cavity is opened medially, the Ductus choledochus ligatured shortly above its entry into the duodenum and also near the liver joint, and both sections are catheterized towards the liver.
(§3) As in the case of the rat all pancreatic ducts lead into the center section of the Ductus choledochus; it is thus possible in this way to derive separately the pancreatic secreta from the distal (ligatured) section and the bile from the proximal section of the Ductus choledochus.
(§4) The separated quantities of pancreatic juice and bile juice are measured at intervals of 30 minutes during the period from before 2 hours to 3 hours after the intraduodenal […] administration of the compounds to be tested (volume of liquid administered 5 ml/kg).
(§5) The body temperature of the animals is maintained at from 36° to 38° C. by means of electric blankets and radiation; the monitoring of the temperature is carried out rectally.
(§6) The liquid volumes of the 30-minute fractions after the administration of the product are related in each case to the quantity of bile or pancreatic juice secreted prior to the application of the substance (=100%, mean of the two last measurements). The maximum percentage increase of the pancreatic or bile secretion is plotted against the dose and, from this, the ED50 is determined by interpolation.

A further series concerns pancreatic secretion. The series is described as above. The series is classed as in vivo, rat (male Sprague-Dawley). The note with it: Rattus norvegicus, 0.5 h, read-out: Pancreatic Secretion ED50 (dose which brings about an increase in the pancreatic secretion by a maximum of 50%).
Source text: as §1, §2, §3, §4, §5, §6

Another series in a line: in vivo. The note with it: mouse, ip.
A short description of series [2]: Influence on the bile secretion (choleresis) of the narcotized rat after intraduodenal application. The series is classed as in vivo, rat (male Sprague-Dawley). Particulars: in vivo; Table II; LD50 mouse i.p. / ED50 bile secretion rat i.d.; read-out: TQ (LD50/ED50), bile secretion.
Source text: as §1, §2, §3, §4, §5, §6

The next series concerns bile secretion. The series is described as above. Particulars: Rattus norvegicus, 0.5 h, read-out: Bile Secretion ED50 (dose which brings about an increase in the bile secretion by a maximum of 50%). In kind it is in vivo, rat (male Sprague-Dawley).
Source text: as §1, §2, §3, §4, §5, §6

A further series deals with female NMRI mice. As to the kind of experiment: Determination of the toxicity, lethal effect on the mouse after intraperitoneal application.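 Also: mice received several intraperitoneal dose levels, five animals per level, and were followed for 14 days to estimate the lethal dose for half the animals.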 Particulars: Table II, i.p., 14 days observation.

Broadly, the ED50 is the dose at which the effect has come halfway, by size or by number of responders. Usually LD50 stands for the dose at which mortality reaches 50%. The low end stands for greater toxicity, the high end for lower toxicity.

Molecules are shown by their SMILES.

Procedure for female NMRI mice: (§7) The animals (5 animals per dose) are given food and water ad lib. Different dosages of the substances are administered intraperitoneally. The duration of observation is 14 days.
Procedure for in vivo: as §7

Regarding `COc1ccc(N(CC(=O)NCCC(=O)O)C(=O)c2ccc(Cl)cc2)cc1` [Serial No. 5, N-[N-(p-chlorobenzoyl)-2-(p-anisidino)acetyl]-3-aminopropionic acid], the selectivity ratio in series [1] was 52. Moreover, in the series on pancreatic secretion, the ED50 is 25 mg/kg. In “in vivo”, this molecule yielded a 50% lethal dose (LD50) at 336 h of 1300 mg/kg.

For `COc1ccc(N(CC(=O)NCC(=O)O)C(=O)c2ccc(Cl)cc2)cc1` [Serial No. 4, N-[N-(p-chlorobenzoyl)-2-(p-anisidino)acetyl]glycine], in series [1], the selectivity ratio is above 67. Besides, in the series on pancreatic secretion, the ED50 was found to be 15 mg/kg. This molecule also returned an LD50 at 336 h in “in vivo” above 1000 mg/kg.

With `COc1ccc(N(CCCC(=O)O)C(=O)C(C)N(C(C)=O)c2ccc(OC)cc2)cc1` (centres unmarked) [Serial No. 16, N-[N-acetyl-2-(p-anisidino)propionyl]-4-(p-anisidino)butyric acid], in series [2], the selectivity ratio was determined as 60. The ED50 in the series with bile secretion amounted to 10 mg/kg. The median lethal dose (LD50) at 336 h in “in vivo” came to 600 mg/kg.

As to `Cc1cccc(C)c1N(CCCC(=O)NCCCC(=O)O)C(=O)c1ccc(Cl)cc1` [Serial No. 14, N-[N-(p-chlorobenzoyl)-4-(2,6-dimethylanilino)butyryl]-4-aminobutyric acid], the selectivity ratio in series [1] worked out at 1000. Further, in the series on pancreatic secretion, the ED50 is 0.4 mg/kg. This molecule also yielded an LD50 at 336 h in “in vivo” of 400 mg/kg.

Turning to `COc1cc(C(=O)N(CCCC(=O)NCCCC(=O)O)c2c(C)cccc2C)cc(OC)c1OC` [Serial No. 15, N-[N-(3,4,5-trimethoxybenzoyl)-4-(2,6-dimethylanilino)butyryl]-4-aminobutyric acid], the selectivity ratio in series [1] is around 800. The ED50 in the series with pancreatic secretion is around 1 mg/kg. In addition, the LD50 at 336 h in “in vivo” is 800 mg/kg.

Take `CCc1cccc(CC)c1N(CCCC(=O)O)C(=O)CCN(C(C)=O)c1c(C)cccc1C` [Serial No. 21, N-[N-acetyl-3-(2,6-dimethylanilino)propionyl]-4-(2,6-diethylanilino)butyric acid]: in series [2], the selectivity ratio is around 280. In the series with bile secretion, the ED50 was around 1 mg/kg. The LD50 at 336 h in “in vivo” amounted to 280 mg/kg.

Take `Cc1cccc(C)c1N(CCCC(=O)O)C(=O)CCCN(C(=O)c1ccc(Cl)cc1)c1c(C)cccc1C` [Serial No. 11, N-[N-(p-chlorobenzoyl)-4-(2,6-dimethylanilino)butyryl]-4-(2,6-dimethylanilino)butyric acid]: the results for the selectivity ratio in series [1] and in series [2] were 130 and 43, respectively. For the same molecule, the ED50 was determined as 1 mg/kg in the series with pancreatic secretion and 3 mg/kg in the series on bile secretion. For the same molecule, the LD50 at 336 h in “in vivo” is 130 mg/kg.

Turning to `COc1ccc(N(CCCC(=O)O)C(=O)CCN(C(C)=O)c2c(C)cccc2C)cc1` [Serial No. 20, N-[N-acetyl-3-(2,6-dimethylanilino)propionyl]-4-(p-anisidino)butyric acid], the selectivity ratio in series [1] and in series [2] was 86 each time. Also, the ED50 in the series with pancreatic secretion and with bile secretion was 7 mg/kg in each case. In “in vivo”, the 50% lethal dose (LD50) at 336 h stood at 600 mg/kg.

With `COc1ccc(N(CCCC(=O)O)C(=O)C(C)N(C(=O)c2ccc(Cl)cc2)c2ccc(OC)cc2)cc1` (centres unmarked) [Serial No. 18, N-[N-(p-chlorobenzoyl)-2-(p-anisidino)propionyl]-4-(p-anisidino)butyric acid], the selectivity ratio is at most 50 in series [1] and at most 36 in series [2]. For the same molecule, the median effective dose (ED50) came to 5 mg/kg in the series on pancreatic secretion and 7 mg/kg in the series on bile secretion. In “in vivo”, this molecule showed a median lethal dose (LD50) at 336 h of at most 250 mg/kg. In addition, the “Toxicity LD50” value with female NMRI mice is on record as at most 250 mg/kg.

On to `COc1ccc(N(CC(=O)N(C)CC(=O)O)C(=O)c2ccc(Cl)cc2)cc1` [Serial No. 3, N-[N-(p-chlorobenzoyl)-2-(p-anisidino)acetyl]sarcosine], for which the selectivity ratio in series [1] was above 67. Besides, the median effective dose (ED50) in the series with pancreatic secretion was 15 mg/kg. In “in vivo”, the 50% lethal dose (LD50) at 336 h was above 1000 mg/kg.

Consider `COc1ccc(N(CCCC(=O)O)C(=O)CN(C(=O)c2ccc(Cl)cc2)c2ccc(OC)cc2)cc1` [Serial No. 9, N-[N-(p-chlorobenzoyl)-2-(p-anisidino)acetyl]-4-(p-anisidino)butyric acid], for which, in series [1], the selectivity ratio came to 140. Moreover, in the series on pancreatic secretion, the 50% effective dose (ED50) came to 3 mg/kg. The molecule also gave an LD50 at 336 h in the series “in vivo” of 420 mg/kg.

Consider `COc1ccc(N(CCCC(=O)O)C(=O)C(C)N(C(=O)c2ccco2)c2ccc(OC)cc2)cc1` (centres unmarked) [Serial No. 17, N-[N-(2-furoyl)-2-(p-anisidino)propionyl]-4-(p-anisidino)butyric acid], for which the selectivity ratio came to 150 in series [1] and 68 in series [2]. For the same molecule, the ED50 in the series on pancreatic secretion stood at 5 mg/kg; with bile secretion it was 11 mg/kg. In addition, the LD50 at 336 h in “in vivo” is 750 mg/kg.

As for `COc1ccc(N(CCCC(=O)O)C(=O)CCCN(C(=O)c2ccc(Cl)cc2)c2c(C)cccc2C)cc1` [Serial No. 13, N-[N-(p-chlorobenzoyl)-4-(2,6-dimethylanilino)butyryl]-4-(p-anisidino)butyric acid], in series [1], the selectivity ratio turned out to be 188. Besides, the ED50 in the series on pancreatic secretion amounted to 0.8 mg/kg. In “in vivo”, the 50% lethal dose (LD50) at 336 h came to 150 mg/kg.

For `Cc1cccc(C)c1N(CC(=O)NCC(=O)O)C(=O)c1ccc(Cl)cc1` [Serial No. 6, N-[N-(p-chlorobenzoyl)-2-(2,6-dimethylanilino)acetyl]glycine], the selectivity ratio in series [1] is around 80. For the same molecule, the ED50 with pancreatic secretion is around 5 mg/kg. In “in vivo”, the median lethal dose (LD50) at 336 h turned out to be 400 mg/kg.

In the case of `Cc1cccc(C)c1N(CCCC(=O)N(C)CC(=O)O)C(=O)c1ccc(Cl)cc1` [Serial No. 2, N-[N-(p-chlorobenzoyl)-4-(2,6-dimethylanilino)butyryl]sarcosine], in series [1], the selectivity ratio was 70. Also, the ED50 in the series on pancreatic secretion was found to be 10 mg/kg. Besides, in “in vivo”, the LD50 at 336 h came out at 700 mg/kg.

Regarding `CCc1cccc(C)c1N(CCCC(=O)O)C(=O)CCN(C(C)=O)c1c(C)cccc1C` [Serial No. 22, N-[N-acetyl-3-(2,6-dimethylanilino)propionyl]-4-(2-ethyl-6-methylanilino)butyric acid], the selectivity ratio in series [1] was 143; in series [2] it was 331. In addition, the values for the 50% effective dose (ED50) in the series with pancreatic secretion and in the series on bile secretion were 3 mg/kg and 1.3 mg/kg, respectively. Further, the median lethal dose (LD50) at 336 h in the series “in vivo” is 430 mg/kg.

In the case of `COc1ccc(N(CCCC(=O)O)C(=O)CCN(C(=O)c2ccc(Cl)cc2)c2c(C)cccc2C)cc1` [Serial No. 25, N-[N-(p-chlorobenzoyl)-3-(2,6-dimethylanilino)propionyl]-4-(p-anisidino)butyric acid], the selectivity ratio in series [2] is around 60. Also, in the series on bile secretion, the ED50 is around 1 mg/kg. For the same molecule, in “in vivo”, the LD50 at 336 h came to 60 mg/kg.

`COc1ccc(N(CCCC(=O)N(CCCC(=O)O)c2c(C)cccc2C)C(=O)c2ccc(Cl)cc2)cc1` [Serial No. 12, N-[N-(p-chlorobenzoyl)-4-(p-anisidino)butyryl]-4-(2,6-dimethylanilino)butyric acid]: the selectivity ratio in series [1] was 400; in series [2], 57. The ED50 in the series with pancreatic secretion is 2 mg/kg; in the series on bile secretion, 14 mg/kg. Moreover, the median lethal dose (LD50) at 336 h in the series “in vivo” is 800 mg/kg.

For `Cc1cccc(C)c1N(CC(=O)NCCC(=O)O)C(=O)c1ccc(Cl)cc1` [Serial No. 7, N-[N-(p-chlorobenzoyl)-2-(2,6-dimethylanilino)acetyl]-3-aminopropionic acid], the selectivity ratio is at least 450 in series [1] and 45 in series [2]. In addition, the ED50 in the series on pancreatic secretion was at most 1 mg/kg; in the series with bile secretion, 10 mg/kg. In the series “in vivo”, this molecule returned a 50% lethal dose (LD50) at 336 h of 450 mg/kg.

As to `COc1ccc(C(=O)N[C@@H](Cc2ccccc2)C(=O)N(CCCC(=O)O)c2ccc(OC)cc2)cc1` [Serial No. 24, N-[N-(p-methoxybenzoyl)phenylalanyl]-4-(p-anisidino)butyric acid], the selectivity ratio in series [1] and in series [2] was 50 throughout. Moreover, the ED50 in the series on pancreatic secretion and with bile secretion was 6 mg/kg throughout. The 50% lethal dose (LD50) at 336 h in the series “in vivo” is 300 mg/kg.

As to `COc1ccc(N(CCCC(=O)O)C(=O)[C@H](CCSC)NC(=O)c2ccc(Cl)cc2)cc1` [Serial No. 23, N-[N-(p-chlorobenzoyl)methionyl]-4-(p-anisidino)butyric acid], in series [2], the selectivity ratio stood at 280. Also, the ED50 with bile secretion was 2.5 mg/kg. In addition, in “in vivo”, the median lethal dose (LD50) at 336 h is 700 mg/kg.

`COc1ccc(N(CC(=O)N(CCCC(=O)O)c2ccc(OC)cc2)C(C)=O)cc1` [Serial No. 8, N-[N-acetyl-2-(p-anisidino)acetyl]-4-(p-anisidino)butyric acid]: the selectivity ratio in series [1] amounted to 1200. Besides, the ED50 in the series with pancreatic secretion is 1 mg/kg. For the same molecule, the LD50 at 336 h in “in vivo” was 1200 mg/kg.

With `COc1ccc(N(CCCC(=O)O)C(=O)CCN(C(=O)c2ccc(Cl)cc2)c2ccc(OC)cc2)cc1` [Serial No. 10, N-[N-(p-chlorobenzoyl)-3-(p-anisidino)propionyl]-4-(p-anisidino)butyric acid], in series [1], the selectivity ratio is around 220. In addition, in the series with pancreatic secretion, the ED50 is around 1 mg/kg. In “in vivo”, this molecule came in with a median lethal dose (LD50) at 336 h of 220 mg/kg.
